Assay results taken from patent publication US10442808B2, “Pyrazolo pyrimidine derivatives and their use as MALT1 inhbitors” (NOVARTIS AG, priority 2014, dated 2019).

Tested on: IL2 promoter
Test: Human IL2 promoter reporter gene assay (RGA) in Jurkat cells
Type: cell-based
Protocol: Human IL2 Promoter Reporter Gene Assay (RGA) in Jurkat Cells
The transfected Jurkat clone K22 290_H23 was propagated in RPMI 1640 supplemented with 10% heat inactivated fetal calf serum, 50 μM 2-mercaptoethanol and 1 mg/ml Geneticin. The cell concentration should not exceed 1×10e6/ml during culturing. The cells should not exceed passage 30. Prior to the assay the cells were washed and prepared to the concentration of 2×10e6 cells/ml.
Compound dilutions were made as 2×-concentrated solutions then diluted ½ by addition to cells. Two hundred and fifty μl of compound dilution and 250 μl of cells were mixed together in wells of a 96-deep well plate. Cells/compounds premix were incubated 30 min at 37° C. and 5% CO2 directly in the deep well plate.
After pre-incubation of cells with compounds, cells were stimulated with anti-CD28 mAb (clone 15E8) at 3 μg/ml+PMA at 1 μg/ml. Both co-stimulants were diluted in culture medium at a 10×-concentrated solution. 10 μl of co-stimulants were pipetted into the white 96-well plates and 100 μl of cell/compound mix was immediately added in duplicates. The cells were stimulated for 5.5 h at 37° C. and 5% CO2.
After cell stimulation, 50 μl of BriteLitePlus reagent (Perkin Elmer) was added to each well and the bioluminescence was measured with a Wallac EnVision reader (Perkin Elmer).

[1] = […], heading: IL2 reporter gene assay IC50, anti-CD28 mAb + PMA stimulation 5.5 h
[2] = anti-CD28 mAb + PMA stimulation 5.5 h

SMILES | IC50 [1] [nM] | IC50 [2] [nM]
CO[C@@H](C)c1c(NC(=O)Nc2ccnc(C(F)(F)F)c2)cnc2cc(C)nn12 [Example 6, (S)-1-(7-(1-methoxyethyl)-2-methylpyrazolo[1,5-a]pyrimidin-6-yl)-3-(2-(trifluoromethyl)pyridin-4-yl)urea] | 30 | –
CO[C@@H](C)c1c(NC(=O)Nc2cnc(OC(F)F)c(Cl)c2)cnc2cc(Cl)nn12 [Example 93, (S)-1-(5-chloro-6-(difluoromethoxy)pyridin-3-yl)-3-(2-chloro-7-(1-methoxyethyl)pyrazolo[1,5-a]pyrimidin-6-yl)urea] | 59 | –
COCC1(c2c(NC(=O)Nc3cnc(-n4nccn4)c(Cl)c3)cnc3cc(Cl)nn23)CCCO1 (centres unmarked) [Example 91, 1-(5-chloro-6-(2H-1,2,3-triazol-2-yl)pyridin-3-yl)-3-(2-chloro-7-(2-(methoxymethyl)tetrahydrofuran-2-yl)pyrazolo[1,5-a]pyrimidin-6-yl)urea] | 50 | –
COCC1(c2c(NC(=O)Nc3ccnc(C(F)(F)F)c3)cnc3cc(C)nn23)CC1 [Example 79, 1-(7-(1-(methoxymethyl)cyclopropyl)-2-methylpyrazolo[1,5-a]pyrimidin-6-yl)-3-(2-(trifluoromethyl)pyridin-4-yl)urea] | 89 | –
CO[C@@H](C)c1c(NC(=O)Nc2cnc(-n3nccn3)c(Cl)c2)cnc2cc(F)nn12 [Example 95, (S)-1-(5-chloro-6-(2H-1,2,3-triazol-2-yl)pyridin-3-yl)-3-(2-fluoro-7-(1-methoxyethyl)pyrazolo [1,5-a]pyrimidin-6-yl)urea] | 60 | –
CO[C@@H](C)c1c(NC(=O)Nc2cnc(-n3nccn3)c(C(F)F)c2)cnc2cc(Cl)nn12 [Example 89, (S)-1-(2-chloro-7-(1-methoxyethyl)pyrazolo [1,5-a]pyrimidin-6-yl)-3-(5-(difluoromethyl)-6-(2H-1,2,3-triazol-2-yl)pyridin-3-yl)urea] | 25 | –
CC(C)(c1c(NC(=O)Nc2ccnc(C(F)(F)F)c2)cnc2cc(Cl)nn12)C1CCOCC1 [Example 80, 1-(2-chloro-7-(2-(tetrahydro-2H-pyran-4-yl)propan-2-yl)pyrazolo[1,5-a]pyrimidin-6-yl)-3-(2-(trifluoromethyl)pyridin-4-yl)urea] | 46 | –
CC(C)c1c(NC(=O)Nc2cnc(-n3nccn3)c(Cl)c2)cnc2cc(Cl)nn12 [Example 21, 1-(5-chloro-6-(2H-1,2,3-triazol-2-yl)pyridin-3-yl)-3-(2-chloro-7-isopropylpyrazolo[1,5-a]pyrimidin-6-yl)urea] | 307 | –
COCC(OC)c1c(NC(=O)Nc2ccnc(C(F)(F)F)c2)cnc2cc(Cl)nn12 (centres unmarked) [Example 109, 1-(2-chloro-7-(1,2-dimethoxyethyl)pyrazolo[1,5-a]pyrimidin-6-yl)-3-(2-(trifluoromethyl)pyridin-4-yl)urea] | 199 | –
CN(C)C(=O)c1c(NC(=O)Nc2cnc(-n3nccn3)c(Cl)c2)cnc2cc(Cl)nn12 [Example 70, 2-chloro-6-(3-(5-chloro-6-(2H-1,2,3-triazol-2-yl)pyridin-3-yl)ureido)-N,N-dimethylpyrazolo[1,5-a]pyrimidine-7-carboxamide] | 63 | –
CO[C@@H](C)c1c(NC(=O)Nc2ccnc(C(F)(F)F)c2)cnc2cc(Cl)nn12 [Example 2, (S)-1-(2-chloro-7-(1-methoxyethyl)pyrazolo[1,5-a]pyrimidin-6-yl)-3-(2-(trifluoromethyl)pyridin-4-yl)urea] | – | 51
CN1CCOCC1Cc1c(NC(=O)Nc2cnc(-n3nccn3)c(Cl)c2)cnc2cc(Cl)nn12 (centres unmarked) [Example 83, 1-(5-chloro-6-(2H-1,2,3-triazol-2-yl)pyridin-3-yl)-3-(2-chloro-7-((4-methylmorpholin-3-yl)methyl)pyrazolo[1,5-a]pyrimidin-6-yl)urea] | 13 | –
CN1CCCC[C@H]1c1c(NC(=O)Nc2cnc(-n3nccn3)c(Cl)c2)cnc2cc(Cl)nn12 [Example 84, (S)-1-(5-chloro-6-(2H-1,2,3-triazol-2-yl)pyridin-3-yl)-3-(2-chloro-7-(1-methylpiperidin-2-yl)pyrazolo[1,5-a]pyrimidin-6-yl)urea] | 49 | –
COc1ncc(NC(=O)Nc2cnc3cc(Cl)nn3c2-c2ccncc2)cc1Cl [Example 69, 1-(5-chloro-6-methoxypyridin-3-yl)-3-(2-chloro-7-(pyridin-4-yl)pyrazolo[1,5-a]pyrimidin-6-yl)urea] | 206 | –
CC(C)c1c(NC(=O)Nc2cc(C(F)(F)F)cn(C)c2=O)cnc2cc(Cl)nn12 [Example 32, 1-(2-chloro-7-isopropylpyrazolo[1,5-a]pyrimidin-6-yl)-3-(1-methyl-2-oxo-5-(trifluoromethyl)-1,2-dihydropyridin-3-yl)urea] | 59 | –
COCC(OC)c1c(NC(=O)Nc2cnc(-n3nccn3)c(C(F)(F)F)c2)cnc2cc(Cl)nn12 (centres unmarked) [Example 108, 1-(6-(2H-1,2,3-triazol-2-yl)-5-(trifluoromethyl)pyridin-3-yl)-3-(2-chloro-7-(1,2-dimethoxyethyl)pyrazolo[1,5-a]pyrimidin-6-yl)urea] | 17 | –
CO[C@@H](C)c1c(NC(=O)Nc2cnc(-n3nccn3)c(Cl)c2)cnc2cc(C#N)nn12 [Example 96, (S)-1-(5-chloro-6-(2H-1,2,3-triazol-2-yl)pyridin-3-yl)-3-(2-cyano-7-(1-methoxyethyl)pyrazolo[1,5-a]pyrimidin-6-yl)urea] | 52 | –
CC(C)c1c(NC(=O)Nc2cnc(N3CCCS3(=O)=O)c(C(F)(F)F)c2)cnc2cc(Cl)nn12 [Example 27, 1-(2-chloro-7-isopropylpyrazolo[1,5-a]pyrimidin-6-yl)-3-(6-(1,1-dioxidoisothiazolidin-2-yl)-5-(trifluoromethyl)pyridin-3-yl)urea] | 507 | –
CO[C@@H](c1c(NC(=O)Nc2cnc(-n3nccn3)c(Cl)c2)cnc2cc(Cl)nn12)C(C)C [Example 5, (R)-1-(5-chloro-6-(2H-1,2,3-triazol-2-yl)pyridin-3-yl)-3-(2-chloro-7-(1-methoxy-2-methylpropyl)pyrazolo[1,5-a]pyrimidin-6-yl)urea] | 52 | –
O=C(Nc1cnc(-n2nccn2)c(C(F)(F)F)c1)Nc1cnc2cc(Cl)nn2c1C1CCCO1 (centres unmarked) [Example 54, 1-(6-(2H-1,2,3-triazol-2-yl)-5-(trifluoromethyl)pyridin-3-yl)-3-(2-chloro-7-(tetrahydrofuran-2-yl)pyrazolo[1,5-a]pyrimidin-6-yl)urea] | 266 | –
CO[C@@H](C)c1c(NC(=O)Nc2ccnc(C(F)(F)F)c2)cnc2cc(F)nn12 [Example 7, (S)-1-(2-fluoro-7-(1-methoxyethyl)pyrazolo[1,5-a]pyrimidin-6-yl)-3-(2-(trifluoromethyl)pyridin-4-yl)urea] | 33 | –
COC(c1c(NC(=O)Nc2ccnc(C(F)(F)F)c2)cnc2cc(Cl)nn12)C1CCOCC1 (centres unmarked) [Example 90, 1-(2-chloro-7-(methoxy(tetrahydro-2H-pyran-4-yl)methyl)pyrazolo[1,5-a]pyrimidin-6-yl)-3-(2-(trifluoromethyl)pyridin-4-yl)urea] | 14 | –
CO[C@@H](C)c1c(NC(=O)Nc2cc(C(F)(F)F)cn(C)c2=O)cnc2cc(Cl)nn12 [Example 3, (S)-1-(2-chloro-7-(1-methoxyethyl)pyrazolo[1,5-a]pyrimidin-6-yl)-3-(1-methyl-2-oxo-5-(trifluoromethyl)-1,2-dihydropyridin-3-yl)urea] | – | 131
